Patent publication US6358885B1, “Substituted phenylheterocyclic herbicides” (Mississippi State University, priority 1992, dated 2002)

Legend:
Assay in all cases: Test B preemergence/postemergence greenhouse plant response rating 0 to 10
[1] = test system: wheat; format: in vivo, Triticum aestivum; conditions: for Plant response rating, Wheat: 0 to 10 scale
Summary of the method: (§1)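 Test chemicals were sprayed onto freshly planted seed and, concurrently, onto young plants between the one and four leaf stage. After a twelve- to sixteen-day greenhouse period, each species was visually compared with untreated controls.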

[2] = test system: cheatgrass; format: in vivo, Bromus secalinus; conditions: for Plant response rating, Cheatgrass: 0 to 10 scale
Summary of the method: as §1

[3] = test system: rice; format: in vivo, Oryza sativa; conditions: for Plant response rating, Rice: 0 to 10 scale
Summary of the method: as §1

[4] = test system: sorghum; format: in vivo, Sorghum bicolor; conditions: for Plant response rating, Sorghum: 0 to 10 scale
Summary of the method: as §1

[5] = test system: barnyardgrass; format: in vivo, Echinochloa crus-galli; conditions: for Plant response rating, Barnyardgrass: 0 to 10 scale
Summary of the method: as §1

[6] = test system: wild buckwheat; format: in vivo, Polygonum convolvulus; conditions: for Plant response rating, Wild buckwheat: 0 to 10 scale
Summary of the method: as §1

[7] = test system: purple nutsedge; format: in vivo, Cyperus rotundus; conditions: for Plant response rating, Nutsedge: 0 to 10 scale
Summary of the method: as §1

[8] = test system: soybean; format: in vivo, Glycine max; conditions: for Plant response rating, Soybean: 0 to 10 scale
Summary of the method: as §1

[9] = test system: velvetleaf; format: in vivo, Abutilon theophrasti; conditions: for Plant response rating, Velvetleaf: 0 to 10 scale
Summary of the method: as §1

[10] = test system: barley; format: in vivo, Hordeum vulgare; conditions: for Plant response rating, Barley: 0 to 10 scale
Summary of the method: as §1

[11] = test system: bedstraw; format: in vivo, Galium aparine; conditions: for Plant response rating, Bedstraw: 0 to 10 scale
Summary of the method: as §1

[12] = test system: morningglory; format: in vivo, Ipomoea hederacea; conditions: for Plant response rating, Morningglory: 0 to 10 scale
Summary of the method: as §1

[13] = test system: cotton; format: in vivo, Gossypium hirsutum; conditions: for Plant response rating, Cotton: 0 to 10 scale
Summary of the method: as §1

[14] = test system: lambsquarters; format: in vivo, Chenopodium album; conditions: for Plant response rating, Lambsquarter: 0 to 10 scale
Summary of the method: as §1

[15] = test system: cocklebur; format: in vivo, Xanthium pensylvanicum; conditions: for Plant response rating, Cocklebur: 0 to 10 scale
Summary of the method: as §1

[16] = test system: crabgrass; format: in vivo, Digitaria spp.; conditions: for Plant response rating, Crabgrass: 0 to 10 scale
Summary of the method: as §1

[17] = test system: chickweed; format: in vivo, Stellaria media; conditions: for Plant response rating, Chickweed: 0 to 10 scale
Summary of the method: as §1

[18] = test system: giant foxtail; format: in vivo, Setaria faberii; conditions: for Plant response rating, Giant foxtail: 0 to 10 scale
Summary of the method: as §1

[19] = test system: blackgrass; format: in vivo, Alopecurus myosuroides; conditions: for Plant response rating, Blackgrass: 0 to 10 scale
Summary of the method: as §1

[20] = test system: sugar beet; format: in vivo, Beta vulgaris; conditions: for Plant response rating, Sugar beet: 0 to 10 scale
Summary of the method: as §1

[21] = test system: corn; format: in vivo, Zea mays; conditions: for Plant response rating, Corn: 0 to 10 scale
Summary of the method: as §1

[22] = test system: rape; format: in vivo, Brassica napus; conditions: for Plant response rating, Rape: 0 to 10 scale
Summary of the method: as §1

[23] = test system: wild oat; format: in vivo, Avena fatua; conditions: for Plant response rating, Wild oat: 0 to 10 scale
Summary of the method: as §1

Structure (SMILES): Oc1cc(-c2nn3c(c2Br)CCCC3)c(F)cc1Cl [Compound 81]
- Plant response rating, Wheat ([1]; POSTEMERGENCE, Rate 50 g/ha): 3
- Plant response rating, Wheat ([1]; PREEMERGENCE, Rate 50 g/ha): 0
- Plant response rating (0 to 10 scale), Wheat ([1]; PREEMERGENCE, Rate 200 g/ha): 2
- Plant response rating, Wheat ([1]; Rate 200 g/ha, POSTEMERGENCE): 4
- Plant response rating, Cheatgrass ([2]; POSTEMERGENCE, Rate 50 g/ha): 3
- Plant response rating, Cheatgrass ([2]; PREEMERGENCE, Rate 50 g/ha): 0
- Plant response rating (0 to 10 scale), Cheatgrass ([2]; PREEMERGENCE, Rate 200 g/ha): 4
- Plant response rating, Cheatgrass ([2]; Rate 200 g/ha, POSTEMERGENCE): 4
- Plant response rating, Rice ([3]; POSTEMERGENCE, Rate 50 g/ha): 6
- Plant response rating, Rice ([3]; PREEMERGENCE, Rate 50 g/ha): 0
- Plant response rating (0 to 10 scale), Rice ([3]; PREEMERGENCE, Rate 200 g/ha): 0
- Plant response rating, Rice ([3]; Rate 200 g/ha, POSTEMERGENCE): 6
- Plant response rating, Sorghum ([4]; POSTEMERGENCE, Rate 50 g/ha): 3
- Plant response rating, Sorghum ([4]; PREEMERGENCE, Rate 50 g/ha): 0
- Plant response rating (0 to 10 scale), Sorghum ([4]; PREEMERGENCE, Rate 200 g/ha): 0
- Plant response rating, Sorghum ([4]; Rate 200 g/ha, POSTEMERGENCE): 3
- Plant response rating, Barnyardgrass ([5]; POSTEMERGENCE, Rate 50 g/ha): 8
- Plant response rating, Barnyardgrass ([5]; PREEMERGENCE, Rate 50 g/ha): 0
- Plant response rating (0 to 10 scale), Barnyardgrass ([5]; PREEMERGENCE, Rate 200 g/ha): 0
- Plant response rating, Barnyardgrass ([5]; Rate 200 g/ha, POSTEMERGENCE): 7
- Plant response rating, Wild buckwheat ([6]; POSTEMERGENCE, Rate 50 g/ha): 10
- Plant response rating, Wild buckwheat ([6]; PREEMERGENCE, Rate 50 g/ha): 0
- Plant response rating (0 to 10 scale), Wild buckwheat ([6]; PREEMERGENCE, Rate 200 g/ha): 10
- Plant response rating, Wild buckwheat ([6]; Rate 200 g/ha, POSTEMERGENCE): 10
- Plant response rating, Nutsedge ([7]; PREEMERGENCE, Rate 50 g/ha): 0
- Plant response rating (0 to 10 scale), Nutsedge ([7]; PREEMERGENCE, Rate 200 g/ha): 0
- Plant response rating, Nutsedge ([7]; Rate 200 g/ha, POSTEMERGENCE): 3
- Plant response rating, Soybean ([8]; POSTEMERGENCE, Rate 50 g/ha): 6
- Plant response rating, Soybean ([8]; PREEMERGENCE, Rate 50 g/ha): 0
- Plant response rating (0 to 10 scale), Soybean ([8]; PREEMERGENCE, Rate 200 g/ha): 0
- Plant response rating, Soybean ([8]; Rate 200 g/ha, POSTEMERGENCE): 7
- Plant response rating, Velvetleaf ([9]; POSTEMERGENCE, Rate 50 g/ha): 9
- Plant response rating, Velvetleaf ([9]; PREEMERGENCE, Rate 50 g/ha): 3
- Plant response rating (0 to 10 scale), Velvetleaf ([9]; PREEMERGENCE, Rate 200 g/ha): 10
- Plant response rating, Velvetleaf ([9]; Rate 200 g/ha, POSTEMERGENCE): 10
- Plant response rating, Barley ([10]; POSTEMERGENCE, Rate 50 g/ha): 3
- Plant response rating, Barley ([10]; PREEMERGENCE, Rate 50 g/ha): 0
- Plant response rating (0 to 10 scale), Barley ([10]; PREEMERGENCE, Rate 200 g/ha): 0
- Plant response rating, Barley ([10]; Rate 200 g/ha, POSTEMERGENCE): 3
- Plant response rating, Bedstraw ([11]; POSTEMERGENCE, Rate 50 g/ha): 9
- Plant response rating, Bedstraw ([11]; PREEMERGENCE, Rate 50 g/ha): 0
- Plant response rating (0 to 10 scale), Bedstraw ([11]; PREEMERGENCE, Rate 200 g/ha): 9
- Plant response rating, Bedstraw ([11]; Rate 200 g/ha, POSTEMERGENCE): 10
- Plant response rating, Morningglory ([12]; POSTEMERGENCE, Rate 50 g/ha): 9
- Plant response rating, Morningglory ([12]; PREEMERGENCE, Rate 50 g/ha): 0
- Plant response rating (0 to 10 scale), Morningglory ([12]; PREEMERGENCE, Rate 200 g/ha): 0
- Plant response rating, Morningglory ([12]; Rate 200 g/ha, POSTEMERGENCE): 10
- Plant response rating, Cotton ([13]; POSTEMERGENCE, Rate 50 g/ha): 10
- Plant response rating, Cotton ([13]; PREEMERGENCE, Rate 50 g/ha): 0
- Plant response rating (0 to 10 scale), Cotton ([13]; PREEMERGENCE, Rate 200 g/ha): 0
- Plant response rating, Cotton ([13]; Rate 200 g/ha, POSTEMERGENCE): 10
- Plant response rating, Lambsquarter ([14]; POSTEMERGENCE, Rate 50 g/ha): 10
- Plant response rating, Lambsquarter ([14]; PREEMERGENCE, Rate 50 g/ha): 9
- Plant response rating (0 to 10 scale), Lambsquarter ([14]; PREEMERGENCE, Rate 200 g/ha): 10
- Plant response rating, Lambsquarter ([14]; Rate 200 g/ha, POSTEMERGENCE): 10
- Plant response rating, Cocklebur ([15]; POSTEMERGENCE, Rate 50 g/ha): 8
- Plant response rating, Cocklebur ([15]; PREEMERGENCE, Rate 50 g/ha): 0
- Plant response rating (0 to 10 scale), Cocklebur ([15]; PREEMERGENCE, Rate 200 g/ha): 0
- Plant response rating, Cocklebur ([15]; Rate 200 g/ha, POSTEMERGENCE): 10
- Plant response rating, Crabgrass ([16]; POSTEMERGENCE, Rate 50 g/ha): 4
- Plant response rating, Crabgrass ([16]; PREEMERGENCE, Rate 50 g/ha): 0
- Plant response rating (0 to 10 scale), Crabgrass ([16]; PREEMERGENCE, Rate 200 g/ha): 0
- Plant response rating, Crabgrass ([16]; Rate 200 g/ha, POSTEMERGENCE): 6
- Plant response rating, Chickweed ([17]; POSTEMERGENCE, Rate 50 g/ha): 2
- Plant response rating, Chickweed ([17]; PREEMERGENCE, Rate 50 g/ha): 0
- Plant response rating (0 to 10 scale), Chickweed ([17]; PREEMERGENCE, Rate 200 g/ha): 9
- Plant response rating, Chickweed ([17]; Rate 200 g/ha, POSTEMERGENCE): 3
- Plant response rating, Giant foxtail ([18]; POSTEMERGENCE, Rate 50 g/ha): 4
- Plant response rating, Giant foxtail ([18]; PREEMERGENCE, Rate 50 g/ha): 0
- Plant response rating (0 to 10 scale), Giant foxtail ([18]; PREEMERGENCE, Rate 200 g/ha): 2
- Plant response rating, Giant foxtail ([18]; Rate 200 g/ha, POSTEMERGENCE): 8
- Plant response rating, Blackgrass ([19]; POSTEMERGENCE, Rate 50 g/ha): 2
- Plant response rating, Blackgrass ([19]; PREEMERGENCE, Rate 50 g/ha): 0
- Plant response rating (0 to 10 scale), Blackgrass ([19]; PREEMERGENCE, Rate 200 g/ha): 3
- Plant response rating, Blackgrass ([19]; Rate 200 g/ha, POSTEMERGENCE): 4
- Plant response rating, Sugar beet ([20]; POSTEMERGENCE, Rate 50 g/ha): 10
- Plant response rating, Sugar beet ([20]; PREEMERGENCE, Rate 50 g/ha): 0
- Plant response rating (0 to 10 scale), Sugar beet ([20]; PREEMERGENCE, Rate 200 g/ha): 9
- Plant response rating, Sugar beet ([20]; Rate 200 g/ha, POSTEMERGENCE): 10
- Plant response rating, Corn ([21]; POSTEMERGENCE, Rate 50 g/ha): 2
- Plant response rating, Corn ([21]; PREEMERGENCE, Rate 50 g/ha): 0
- Plant response rating (0 to 10 scale), Corn ([21]; PREEMERGENCE, Rate 200 g/ha): 0
- Plant response rating, Corn ([21]; Rate 200 g/ha, POSTEMERGENCE): 3
- Plant response rating, Rape ([22]; POSTEMERGENCE, Rate 50 g/ha): 3
- Plant response rating, Rape ([22]; PREEMERGENCE, Rate 50 g/ha): 0
- Plant response rating (0 to 10 scale), Rape ([22]; PREEMERGENCE, Rate 200 g/ha): 7
- Plant response rating, Rape ([22]; Rate 200 g/ha, POSTEMERGENCE): 7
- Plant response rating, Wild oat ([23]; POSTEMERGENCE, Rate 50 g/ha): 2
- Plant response rating, Wild oat ([23]; PREEMERGENCE, Rate 50 g/ha): 0
- Plant response rating (0 to 10 scale), Wild oat ([23]; PREEMERGENCE, Rate 200 g/ha): 3
- Plant response rating, Wild oat ([23]; Rate 200 g/ha, POSTEMERGENCE): 3
